Read-outs that look alike come from different tables or passages of the source.
Target: JAK3 enzyme (Homo sapiens (Human), UniProt P52333)
Test: JAK Caliper Enzyme Assay at 4 μM or 1 mM ATP
Type: biochemical
[1] = read-out: JAK3 (4 μM ATP) IC50, 4 μM ATP
[2] = read-out: JAK3 (1 mM ATP) IC50, 1 mM ATP

JAK3 enzyme, sequence (P52333 whole entry, species assumed): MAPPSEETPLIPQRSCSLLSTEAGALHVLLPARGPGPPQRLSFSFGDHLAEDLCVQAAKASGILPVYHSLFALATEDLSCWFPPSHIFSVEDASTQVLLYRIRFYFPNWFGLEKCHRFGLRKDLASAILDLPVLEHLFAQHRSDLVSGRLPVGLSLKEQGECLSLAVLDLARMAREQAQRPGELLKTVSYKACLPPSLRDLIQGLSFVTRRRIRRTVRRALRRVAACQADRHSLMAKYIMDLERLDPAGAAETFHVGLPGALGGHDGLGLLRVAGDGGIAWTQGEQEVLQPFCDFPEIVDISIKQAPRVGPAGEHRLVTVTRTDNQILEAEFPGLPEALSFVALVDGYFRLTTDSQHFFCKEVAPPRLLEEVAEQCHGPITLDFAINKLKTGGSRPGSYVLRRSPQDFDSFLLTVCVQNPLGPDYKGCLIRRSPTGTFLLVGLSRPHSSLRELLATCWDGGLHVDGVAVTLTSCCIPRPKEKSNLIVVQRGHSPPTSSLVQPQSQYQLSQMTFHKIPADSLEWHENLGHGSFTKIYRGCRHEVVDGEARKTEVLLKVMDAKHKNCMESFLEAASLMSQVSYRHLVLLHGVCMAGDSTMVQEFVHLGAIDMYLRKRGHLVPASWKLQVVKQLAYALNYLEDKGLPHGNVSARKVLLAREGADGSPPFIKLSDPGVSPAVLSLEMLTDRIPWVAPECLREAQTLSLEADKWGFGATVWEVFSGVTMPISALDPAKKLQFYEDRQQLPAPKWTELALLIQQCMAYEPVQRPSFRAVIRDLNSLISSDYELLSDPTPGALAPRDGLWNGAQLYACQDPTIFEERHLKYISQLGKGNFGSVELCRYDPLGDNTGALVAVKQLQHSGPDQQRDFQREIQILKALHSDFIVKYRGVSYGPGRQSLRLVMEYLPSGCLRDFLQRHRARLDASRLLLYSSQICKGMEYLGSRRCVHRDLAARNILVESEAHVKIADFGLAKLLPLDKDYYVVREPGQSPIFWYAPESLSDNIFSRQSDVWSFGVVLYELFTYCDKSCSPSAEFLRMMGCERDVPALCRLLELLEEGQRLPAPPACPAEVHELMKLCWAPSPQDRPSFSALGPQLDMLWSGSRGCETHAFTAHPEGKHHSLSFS

Row | SMILES | IC50 [1] [nM] | IC50 [2] [nM]
1 | C=CC(=O)N1CCC(Nc2cnc3[nH]cc(C(=O)NCC4CCCC4)c3n2)CC1 [Example 270, 2-[(1-acryloylpiperidin-4-yl)amino]-N-(cyclopentylmethyl)-5H-pyrrolo[2,3-b]pyrazine-7-carboxamide] | < 0.1 | 8.6
2 | C=CC(=O)N1CCC(Nc2cnc3[nH]cc(C(=O)NCC(C)(C)C)c3n2)CC1 [Example 271, 2-[(1-acryloylpiperidin-4-yl)amino]-N-(2,2-dimethylpropyl)-5H-pyrrolo[2,3-b]pyrazine-7-carboxamide] | 0.4 | 14.9
3 | C=CC(=O)N1CCC(Nc2cnc3[nH]cc(C(=O)NCC(C)C)c3n2)CC1 [Example 272, 2-[(1-acryloylpiperidin-4-yl)amino]-N-(2-methylpropyl)-5H-pyrrolo[2,3-b]pyrazine-7-carboxamide] | 0.2 | 8.8
4 | C=CC(=O)N1CCC(Nc2cnc3[nH]cc(C(=O)NCC(F)(F)F)c3n2)CC1 [Example 273, 2-[(1-acryloylpiperidin-4-yl)amino]-N-(2,2,2-trifluoroethyl)-5H-pyrrolo[2,3-b]pyrazine-7-carboxamide] | 0.4 | 11.4
5 | C=CC(=O)N1CCC(Nc2cnc3[nH]cc(C(=O)N[C@H](C)CCC)c3n2)CC1 [Example 274, 2-[(1-acryloylpiperidin-4-yl)amino]-N-[(2R)-pentan-2-yl]-5H-pyrrolo[2,3-b]pyrazine-7-carboxamide] | 0.2 | 8.2
6 | C=CC(=O)N1CCC(Nc2cnc3[nH]cc(C(=O)NCCOC)c3n2)CC1 [Example 275, 2-[(1-acryloylpiperidin-4-yl)amino]-N-(2-methoxyethyl)-5H-pyrrolo[2,3-b]pyrazine-7-carboxamide] | 0.4 | 13.1
7 | C=CC(=O)N1CCC(Nc2cnc3[nH]cc(C(=O)NC(C)(C)CC)c3n2)CC1 [Example 276, 2-[(1-acryloylpiperidin-4-yl)amino]-N-(2-methylbutan-2-yl)-5H-pyrrolo[2,3-b]pyrazine-7-carboxamide] | < 0.3 | 11.1
8 | C=CC(=O)N1CCC(Nc2cnc3[nH]cc(C(=O)N[C@@H](C)COC)c3n2)CC1 [Example 277, 2-[(1-acryloylpiperidin-4-yl)amino]-N-[(2S)-1-methoxypropan-2-yl]-5H-pyrrolo[2,3-b]pyrazine-7-carboxamide] | 0.3 | 6.6
9 | C=CC(=O)N1CCC(Nc2cnc3[nH]cc(C(=O)NC4CCCCC4)c3n2)CC1 [Example 278, 2-[(1-acryloylpiperidin-4-yl)amino]-N-cyclohexyl-5H-pyrrolo[2,3-b]pyrazine-7-carboxamide] | 0.2 | 6.3
10 | C=CC(=O)N1CCC(Nc2cnc3[nH]cc(C(=O)N(C)C(C)C)c3n2)CC1 [Example 279, 2-[(1-acryloylpiperidin-4-yl)amino]-N-methyl-N-(propan-2-yl)-5H-pyrrolo[2,3-b]pyrazine-7-carboxamide] | 9.7 | 592
11 | C=CC(=O)N1CCC(Nc2cnc3[nH]cc(C(=O)NC4CCC4)c3n2)CC1 [Example 280, 2-[(1-acryloylpiperidin-4-yl)amino]-N-cyclobutyl-5H-pyrrolo[2,3-b]pyrazine-7-carboxamide] | 0.2 | 4
12 | C=CC(=O)N1CCC(Nc2cnc3[nH]cc(C(=O)NC45CC(C4)C5)c3n2)CC1 [Example 281, 2-[(1-acryloylpiperidin-4-yl)amino]-N-(bicyclo[1.1.1]pent-1-yl)-5H-pyrrolo[2,3-b]pyrazine-7-carboxamide] | 0.4 | 5.2
13 | C=CC(=O)N1CCC(Nc2cnc3[nH]cc(C(=O)NCC(C)(F)F)c3n2)CC1 [Example 282, 2-[(1-acryloylpiperidin-4-yl)amino]-N-(2,2-difluoropropyl)-5H-pyrrolo[2,3-b]pyrazine-7-carboxamide] | 0.2 | 12.9
14 | C=CC(=O)N1CCC(Nc2cnc3[nH]cc(C(=O)NC4CCCC4)c3n2)CC1 [Example 283, 2-[(1-acryloylpiperidin-4-yl)amino]-N-cyclopentyl-5H-pyrrolo[2,3-b]pyrazine-7-carboxamide] | 0.3 | 7.6
15 | C=CC(=O)N1CCC(Nc2cnc3[nH]cc(C(=O)N4CCC4)c3n2)CC1 [Example 284, 1-(4-{[7-(azetidin-1-ylcarbonyl)-5H-pyrrolo[2,3-b]pyrazin-2-yl]amino}piperidin-1-yl)prop-2-en-1-one] | 1.9 | 176
16 | C=CC(=O)N1CCC(Nc2cnc3[nH]cc(C(=O)N[C@@H](C)CC)c3n2)CC1 [Example 285, 2-[(1-acryloylpiperidin-4-yl)amino]-N-[(2S)-butan-2-yl]-5H-pyrrolo[2,3-b]pyrazine-7-carboxamide] | 0.3 | 8.5
17 | C=CC(=O)N1CCC(Nc2cnc3[nH]cc(C(=O)N(C)C4CC4)c3n2)CC1 [Example 286, 2-[(1-acryloylpiperidin-4-yl)amino]-N-cyclopropyl-N-methyl-5H-pyrrolo[2,3-b]pyrazine-7-carboxamide] | 15.9 | 814

Row | SMILES | IC50 [1] [nM] | IC50 [2] [nM]
18 | C=CC(=O)N1CCC(Nc2cnc3[nH]cc(C(=O)N4CCCC4)c3n2)CC1 [Example 287, 1-(4-{[7-(pyrrolidin-1-ylcarbonyl)-5H-pyrrolo[2,3-b]pyrazin-2-yl]amino}piperidin-1-yl)prop-2-en-1-one] | 4.2 | 346
19 | C=CC(=O)N1CCC(Nc2cnc3[nH]cc(C(=O)NC(C)C4CC4)c3n2)CC1 (stereo not drawn) [Example 288, 2-[(1-acryloylpiperidin-4-yl)amino]-N-(1-cyclopropylethyl)-5H-pyrrolo[2,3-b]pyrazine-7-carboxamide] | 0.2 | 7.8
20 | C=CC(=O)N1CCC(Nc2cnc3[nH]cc(C(=O)N[C@H](C)CC)c3n2)CC1 [Example 289, 2-[(1-acryloylpiperidin-4-yl)amino]-N-[(2R)-butan-2-yl]-5H-pyrrolo[2,3-b]pyrazine-7-carboxamide] | 0.3 | 7.1
21 | C=CC(=O)N1CC[C@@H](Nc2cnc3[nH]cc(C(=O)NC(C)C)c3n2)[C@H](F)C1 [Example 291, 2-{[(3R,4R)-1-acryloyl-3-fluoropiperidin-4-yl]amino}-N-(propan-2-yl)-5H-pyrrolo[2,3-b]pyrazine-7-carboxamide] | 0.2 | 9.2
22 | C=CC(=O)N1CCN(c2cnc3[nH]cc(C(=O)NC(C)C)c3n2)CC1(C)C [Example 293, 2-(4-acryloyl-3,3-dimethylpiperazin-1-yl)-N-(propan-2-yl)-5H-pyrrolo[2,3-b]pyrazine-7-carboxamide] | 0.6 | 107
23 | C=CC(=O)N1CCN(c2cnc3[nH]cc(C(=O)NC(C)C)c3n2)C[C@H]1C(C)C [Example 294, 2-[(3R)-4-acryloyl-3-(propan-2-yl)piperazin-1-yl]-N-(propan-2-yl)-5H-pyrrolo[2,3-b]pyrazine-7-carboxamide] | 1.9 | 235
24 | C=CC(=O)N1CCN(c2cnc3[nH]cc(C(=O)NC(C)C)c3n2)C[C@@H]1C [Example 295, 2-[(3S)-4-acryloyl-3-methylpiperazin-1-yl]-N-(propan-2-yl)-5H-pyrrolo[2,3-b]pyrazine-7-carboxamide] | 1.1 | 89.8
25 | C=CC(=O)N1CCN(c2cnc3[nH]cc(C(=O)NC(C)C)c3n2)[C@@H](C)C1 [Example 297, 2-[(2S)-4-acryloyl-2-methylpiperazin-1-yl]-N-(propan-2-yl)-5H-pyrrolo[2,3-b]pyrazine-7-carboxamide] | 1.5 | 181
26 | C=CC(=O)N1CCN(c2cnc3[nH]cc(C(=O)NC(C)C)c3n2)C[C@@H]1CC [Example 299, 2-[(3S)-4-acryloyl-3-ethylpiperazin-1-yl]-N-(propan-2-yl)-5H-pyrrolo[2,3-b]pyrazine-7-carboxamide] | 0.7 | 55.6
27 | C=CC(=O)N1[C@@H]2CC[C@H]1CN(c1cnc3[nH]cc(C(=O)NC(C)C)c3n1)C2 [Example 301, 2-[(1R,5S)-8-acryloyl-3,8-diazabicyclo[3.2.1]oct-3-yl]-N-(propan-2-yl)-5H-pyrrolo[2,3-b]pyrazine-7-carboxamide] | 0.6 | 89
28 | C=CC(=O)N1CC[C@@H](Nc2cnc3[nH]cc(C(=O)NC(C)C)c3n2)[C@@H](OC)C1 [Example 302, 2-{[(3S,4R)-1-acryloyl-3-methoxypiperidin-4-yl]amino}-N-(propan-2-yl)-5H-pyrrolo[2,3-b]pyrazine-7-carboxamide] | 1.2 | 49.4
29 | C=CC(=O)N1CC[C@@H](Nc2cnc3[nH]cc(C(=O)NC(C)C)c3n2)[C@H](OC)C1 [Example 305, 2-{[(3R,4R)-1-acryloyl-3-methoxypiperidin-4-yl]amino}-N-(propan-2-yl)-5H-pyrrolo[2,3-b]pyrazine-7-carboxamide] | 0.8 | 65
30 | C=CC(=O)N1[C@H](C)CN(c2cnc3[nH]cc(C(=O)NC(C)C)c3n2)C[C@@H]1C [Example 306, 2-[(3R,5S)-4-acryloyl-3,5-dimethylpiperazin-1-yl]-N-(propan-2-yl)-5H-pyrrolo[2,3-b]pyrazine-7-carboxamide] | 3.9 | 326
31 | C=CC(=O)N1CCN(c2cnc3[nH]cc(C(=O)NC(C)C)c3n2)[C@H](C)C1 [Example 307, 2-[(2R)-4-acryloyl-2-methylpiperazin-1-yl]-N-(propan-2-yl)-5H-pyrrolo[2,3-b]pyrazine-7-carboxamide] | 1.1 | 128
32 | C=CC(=O)N1CCN(c2cnc3[nH]cc(C(=O)NC(C)C)c3n2)[C@H](C2CC2)C1 [Example 309, 2-[(2R)-4-acryloyl-2-cyclopropylpiperazin-1-yl]-N-(propan-2-yl)-5H-pyrrolo[2,3-b]pyrazine-7-carboxamide] | 6.6 | 814
33 | C=CC(=O)N1CC2(C1)CN(c1cnc3[nH]cc(C(=O)NC(C)C)c3n1)C2 [Example 310, 2-(6-acryloyl-2,6-diazaspiro[3.3]hept-2-yl)-N-(propan-2-yl)-5H-pyrrolo[2,3-b]pyrazine-7-carboxamide] | 117 | > 10000
